In brackets after ≈: the same amount, converted by molar mass. Where two headings read alike, the source gives them in different places.
What was measured:
[1] = system: Bifidobacterium longum subsp. Longum—44B HM 845; assay: MIC against human normal gut microbiota; assay type: cell-based; conditions: BHIS broth, anaerobic, 48 hours
Method in brief: (§1)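 Strains are first cultured 48 h at 37° C on agar (BHIS anaerobic; MRS with 5% CO2). They are then adjusted to 0.5 McFarland in PBS and diluted to ~5×10^5 CFU/ml in matching broth. Finally they are incubated 48 h with compound serial dilutions under the same atmosphere.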

[2] = system: Bacteroides dorei—CL02T12C06 HM-719; assay: MIC against human normal gut microbiota; assay type: cell-based; conditions: BHIS broth, anaerobic, 48 hours
Method in brief: as §1

[3] = system: Lactobacillus casei ATCC 334; assay: MIC against human normal gut microbiota; assay type: cell-based; conditions: MRS broth, 5% CO2, 48 hours
Method in brief: as §1

[4] = system: Lactobacillus gasseri EX336960VC03 HIM-400; assay: MIC against human normal gut microbiota; assay type: cell-based; conditions: MRS broth, 5% CO2, 48 hours
Method in brief: as §1

[5] = system: Bacteroides fragilis—CL07T00C01 HIM-709; assay: MIC against human normal gut microbiota; assay type: cell-based; conditions: BHIS broth, anaerobic, 48 hours
Method in brief: as §1

[6] = system: Bifidobacterium breve—JCP7499 HIM 1120; assay: MIC against human normal gut microbiota; assay type: cell-based; conditions: BHIS broth, anaerobic, 48 hours
Method in brief: as §1

[7] = system: Mutant-11 of Enterococcus fecalis NR 31975; assay: microbe, parasite or virus in culture; assay type: cell-based
[8] = system: Mutant-13 of Enterococcus fecalis NR 31975; assay: microbe, parasite or virus in culture; assay type: cell-based
[9] = system: Mutant-12 of Enterococcus fecalis NR 31975; assay: microbe, parasite or virus in culture; assay type: cell-based
[10] = system: Mutant-4 of Enterococcus fecalis NR 31975; assay: microbe, parasite or virus in culture; assay type: cell-based
[11] = system: Mutant-7 of Enterococcus fecalis NR 31975; assay: microbe, parasite or virus in culture; assay type: cell-based
[12] = system: Mutant-9 of Enterococcus fecalis NR 31975; assay: microbe, parasite or virus in culture; assay type: cell-based
[13] = system: Mutant-15 of Enterococcus fecalis NR 31975; assay: microbe, parasite or virus in culture; assay type: cell-based
[14] = system: Mutant-14 of Enterococcus fecalis NR 31975; assay: microbe, parasite or virus in culture; assay type: cell-based
[15] = system: Mutant-8 of Enterococcus fecalis NR 31975; assay: microbe, parasite or virus in culture; assay type: cell-based
[16] = system: MRSA NRS 384 (MRSA USA300); assay: MIC against Staphylococci, broth microdilution; assay type: cell-based, Staphylococcus aureus; conditions: TSB
Method in brief: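 CLSI broth microdilution in tryptone soy broth, inoculum about 5×10^5 CFU/mL from overnight agar cultures at 0.5 McFarland, with serially diluted compound. Plates were incubated aerobically at 37° C for 18-20 h. MIC was the lowest concentration with no visible growth.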

[17] = system: Mutant-3 of Enterococcus fecalis NR 31975; assay: microbe, parasite or virus in culture; assay type: cell-based
[18] = system: Enterococcus faecium Patient #2-1-NR-31909; assay: MIC, broth microdilution in TSB; assay type: cell-based; conditions: TSB
Method in brief: (§2)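 Complete inhibition of visible growth defined the MIC. Bacteria at approximately 5×10^5 CFU/mL faced […]serial dilutions of each compound and were kept aerobically at 37° C for 18-20 hours.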

[19] = system: Enterococcus fecalis Strain MMH594-NR31975; assay: MIC, broth microdilution in TSB; assay type: cell-based; conditions: TSB
Method in brief: as §2

[20] = system: Enterococcus faecium E417-HM-965; assay: MIC, broth microdilution in TSB; assay type: cell-based; conditions: TSB
Method in brief: as §2

[21] = system: Enterococcus fecalis Strain SF 28073-NR31972; assay: MIC, broth microdilution in TSB; assay type: cell-based; conditions: TSB
Method in brief: as §2

[22] = system: Enterococcus fecalis Strain SF 24397 NR31970; assay: MIC, broth microdilution in TSB; assay type: cell-based; conditions: TSB
Method in brief: as §2

[23] = system: Enterococcus faecalis—S613 HM-334; assay: MIC, broth microdilution in TSB; assay type: cell-based; conditions: TSB
Method in brief: as §2

[24] = system: Enterococcus faecium Patient #3-1 NR-31912; assay: MIC, broth microdilution in TSB; assay type: cell-based; conditions: TSB
Method in brief: as §2

[25] = system: Enterococcus fecalis Strain SF24413 NR31971; assay: MIC, broth microdilution in TSB; assay type: cell-based; conditions: TSB
Method in brief: as §2

[26] = Enterococcus faecium, Table 1, read-out: MIC
[27] = Enterococcus faecium, Table 7, read-out: MIC in TSB
[28] = Enterococcus, Table 1, read-out: MIC
[29] = Enterococcus, Table 7, read-out: MIC in TSB

CC(C)(C)C(=O)Nc1nnc(S(N)(=O)=O)s1 [CAI0010, N-(5-Sulfamoyl-1,3,4-thiadiazol-2-yl) pivalamide]
MIC ([1]; Bifidobacterium longum, read-out: MIC): > 64 µg/mL
MIC ([2]; Bacteroides, read-out: MIC): > 64 µg/mL
MIC ([3]; Lacticaseibacillus casei, ATCC334, read-out: MIC): > 64 µg/mL
MIC ([4]; Lactobacillus gasseri, read-out: MIC): > 64 µg/mL
MIC ([5]; Bacteroides, read-out: MIC): > 64 µg/mL
MIC ([6]; Bifidobacterium, read-out: MIC): > 64 µg/mL
MIC ([7]; Enterococcus): 4 µg/mL (≈ 15.1 µM)
MIC ([8]; Enterococcus): 4 µg/mL (≈ 15.1 µM)
MIC ([9]; Enterococcus): 8 µg/mL (≈ 30.3 µM)
MIC ([10]; Enterococcus): 8 µg/mL (≈ 30.3 µM)
MIC ([11]; Enterococcus): 4 µg/mL (≈ 15.1 µM)
MIC ([12]; Enterococcus): 8 µg/mL (≈ 30.3 µM)
MIC ([13]; Enterococcus): 4 µg/mL (≈ 15.1 µM)
MIC ([14]; Enterococcus): 4 µg/mL (≈ 15.1 µM)
MIC ([15]; Enterococcus): 8 µg/mL (≈ 30.3 µM)
MIC ([16]; Staphylococcus aureus, read-out: MIC): > 64 µg/mL
MIC ([17]; Enterococcus): 4 µg/mL (≈ 15.1 µM)
MIC [18, 26]: 0.5 µg/mL (≈ 1.89 µM)
MIC [18, 27]: 0.125 µg/mL (≈ 0.473 µM)
MIC [19, 28]: 1 µg/mL (≈ 3.78 µM)
MIC [19, 29]: 0.25 µg/mL (≈ 0.946 µM)
MIC ([20]; Enterococcus faecium, E417HM965, Table 1, read-out: MIC): 0.5 µg/mL (≈ 1.89 µM)
MIC ([20]; Enterococcus faecium, E417HM965, Table 7, read-out: MIC in TSB): 0.25 µg/mL (≈ 0.946 µM)
MIC [21, 28]: 0.5 µg/mL (≈ 1.89 µM)
MIC [21, 29]: 0.5 µg/mL (≈ 1.89 µM)
MIC [22, 28]: 0.5 µg/mL (≈ 1.89 µM)
MIC [22, 29]: 0.25 µg/mL (≈ 0.946 µM)
MIC [23, 28]: 0.5 µg/mL (≈ 1.89 µM)
MIC [23, 29]: 0.125 µg/mL (≈ 0.473 µM)
MIC [24, 26]: 1 µg/mL (≈ 3.78 µM)
MIC [24, 27]: 0.25 µg/mL (≈ 0.946 µM)
MIC [25, 28]: 0.5 µg/mL (≈ 1.89 µM)
MIC [25, 29]: 0.25 µg/mL (≈ 0.946 µM)

NS(=O)(=O)c1nnc(NC(=O)CCC2CCCC2)s1 [CAI0015]
MIC [1]: >64 µg/mL
MIC [2]: >64 µg/mL
MIC [3]: >64 µg/mL
MIC [4]: >64 µg/mL
MIC [5]: >64 µg/mL
MIC [6]: >64 µg/mL
MIC ([7]; Mutant-11): 2 µg/mL (≈ 6.57 µM)
MIC ([8]; Mutant-13): 1 µg/mL (≈ 3.29 µM)
MIC ([9]; Mutant-12): 2 µg/mL (≈ 6.57 µM)
MIC ([10]; Mutant-4): 1 µg/mL (≈ 3.29 µM)
MIC ([11]; Mutant-7): 0.25 µg/mL (≈ 0.821 µM)
MIC ([12]; Mutant-9): 1 µg/mL (≈ 3.29 µM)
MIC ([13]; Mutant-15): 1 µg/mL (≈ 3.29 µM)
MIC ([14]; Mutant-14): 1 µg/mL (≈ 3.29 µM)
MIC ([15]; Mutant-8): 2 µg/mL (≈ 6.57 µM)
MIC [16]: >64 µg/mL
MIC ([17]; Mutant-3): 1 µg/mL (≈ 3.29 µM)
MIC ([18]; Table 1): 0.125 µg/mL (≈ 0.411 µM)
MIC in TSB ([18]; Table 7): 0.06 µg/mL (≈ 0.197 µM)
MIC ([19]; Table 1): 0.06 µg/mL (≈ 0.197 µM)
MIC in TSB ([19]; Table 7): 0.06 µg/mL (≈ 0.197 µM)
MIC ([20]; Table 1): 0.25 µg/mL (≈ 0.821 µM)
MIC in TSB ([20]; Table 7): 0.06 µg/mL (≈ 0.197 µM)
MIC ([21]; Table 1): 0.125 µg/mL (≈ 0.411 µM)
MIC in TSB ([21]; Table 7): 0.06 µg/mL (≈ 0.197 µM)
MIC ([22]; Table 1): 0.125 µg/mL (≈ 0.411 µM)
MIC in TSB ([22]; Table 7): 0.06 µg/mL (≈ 0.197 µM)
MIC ([23]; Table 1): 0.125 µg/mL (≈ 0.411 µM)
MIC in TSB ([23]; Table 7): 0.06 µg/mL (≈ 0.197 µM)
MIC ([24]; Table 1): 1 µg/mL (≈ 3.29 µM)
MIC in TSB ([24]; Table 7): 0.125 µg/mL (≈ 0.411 µM)
MIC ([25]; Table 1): 0.06 µg/mL (≈ 0.197 µM)
MIC in TSB ([25]; Table 7): 0.06 µg/mL (≈ 0.197 µM)

From patent publication US12378211B2, “Carbonic anhydrase inhibitors and antibiotics against multidrug resistant bacteria” (Purdue Research Foundation, priority 2018, dated 2025)
